Data taken from the supplement of paper PMC5303821, “Major sulfonate transporter Soa1 in Saccharomyces cerevisiae and considerable substrate diversity in its fungal family” (Nature Communications, 2017).

Assays:
Details in all cases: sulfur source concentration 200 µM; S. cerevisiae S288C/BY sul1Δ sul2Δ soa1Δ with transporter ortholog inserted at SOA1 locus; sulfur-free B medium, 4% glucose, pH 6.5, sole sulfur source
[1] = tested on: Saccharomyces uvarum_SOA2; experiment: lag phase before growth; higher = slower start of growth
Experimental: (§1)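 S. cerevisiae sul1Δ sul2Δ soa1Δ strains expressing 20 fungal SOA1 orthologs (or no transporter, 'soa1 del') were grown in liquid sulfur-free B medium, 4% glucose, pH 6.5 (7 mM K2HPO4). The strains were sulfur-starved for 3 days beforehand. Each sulfur compound was the sole sulfur source at 200 µM (sulfate also at 40 mM). OD600 curves of duplicate cultures were averaged and fitted (logistic / Richards, GroFit) to give maximal growth rate, maximal density and lag phase; temperature not stated.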

[2] = tested on: Ogataea parapolymorpha_XP_013935289; experiment: as above
Experimental: as §1

[3] = tested on: Saccharomyces cerevisiae_SOA1; experiment: as above
Experimental: as §1

[4] = tested on: Aspergillus nidulans_XP_661733; experiment: as above
Experimental: as §1

[5] = tested on: Aspergillus nidulans_XP_660670; experiment: maximal growth rate with compound as sole sulfur source (OD600 per h); higher = better growth / uptake of the sulfur source
Experimental: as §1

[6] = tested on: Aspergillus nidulans (IAM 2006)_astA; experiment: as above
Experimental: as §1

[7] = tested on: Saccharomyces eubayanus_SOA2; experiment: as above
Experimental: as §1

[8] = tested on: Saccharomyces uvarum_SOA2; experiment: as above
Experimental: as §1

[9] = tested on: Aspergillus nidulans_CBF74694; experiment: as above
Experimental: as §1

[10] = tested on: Saccharomyces eubayanus_SOA1; experiment: as above
Experimental: as §1

[11] = tested on: Metarhizium robertsii_XP_007822519; experiment: as above
Experimental: as §1

[12] = tested on: Aspergillus nidulans_CBF80346; experiment: as above
Experimental: as §1

[13] = tested on: Metarhizium robertsii_XP_007821441; experiment: as above
Experimental: as §1

[14] = tested on: Saccharomyces uvarum_SOA1; experiment: as above
Experimental: as §1

[15] = tested on: Ogataea parapolymorpha_XP_013936897; experiment: as above
Experimental: as §1

[16] = tested on: Aspergillus nidulans_XP_661711; experiment: as above
Experimental: as §1

[17] = tested on: Fusarium oxysporum_ENH65823; experiment: as above
Experimental: as §1

[18] = tested on: Ogataea parapolymorpha_XP_013935289; experiment: as above
Experimental: as §1

soa1 del [19] = experiment: as above
Experimental: as §1

[20] = tested on: Ogataea parapolymorpha_XP_013932458; experiment: as above
Experimental: as §1

[21] = tested on: Metarhizium robertsii_XP_007823832; experiment: as above
Experimental: as §1

[22] = tested on: Aspergillus nidulans_XP_681611; experiment: as above
Experimental: as §1

[23] = tested on: Saccharomyces cerevisiae_SOA1; experiment: as above
Experimental: as §1

[24] = tested on: Aspergillus nidulans_XP_660563; experiment: as above
Experimental: as §1

[25] = tested on: Aspergillus nidulans_XP_661733; experiment: as above
Experimental: as §1

[26] = tested on: Aspergillus nidulans_XP_660670; experiment: maximal culture density with compound as sole sulfur source (OD600); higher = better growth
Experimental: as §1

[27] = tested on: Aspergillus nidulans (IAM 2006)_astA; experiment: as above
Experimental: as §1

[28] = tested on: Saccharomyces eubayanus_SOA2; experiment: as above
Experimental: as §1

[29] = tested on: Saccharomyces uvarum_SOA2; experiment: as above
Experimental: as §1

[30] = tested on: Aspergillus nidulans_CBF74694; experiment: as above
Experimental: as §1

[31] = tested on: Saccharomyces eubayanus_SOA1; experiment: as above
Experimental: as §1

[32] = tested on: Metarhizium robertsii_XP_007822519; experiment: as above
Experimental: as §1

[33] = tested on: Aspergillus nidulans_CBF80346; experiment: as above
Experimental: as §1

[34] = tested on: Metarhizium robertsii_XP_007821441; experiment: as above
Experimental: as §1

[35] = tested on: Saccharomyces uvarum_SOA1; experiment: as above
Experimental: as §1

[36] = tested on: Ogataea parapolymorpha_XP_013936897; experiment: as above
Experimental: as §1

[37] = tested on: Aspergillus nidulans_XP_661711; experiment: as above
Experimental: as §1

[38] = tested on: Ogataea parapolymorpha_XP_013935289; experiment: as above
Experimental: as §1

soa1 del [39] = experiment: as above
Experimental: as §1

[40] = tested on: Ogataea parapolymorpha_XP_013932458; experiment: as above
Experimental: as §1

[41] = tested on: Metarhizium robertsii_XP_007823832; experiment: as above
Experimental: as §1

[42] = tested on: Aspergillus nidulans_XP_681611; experiment: as above
Experimental: as §1

[43] = tested on: Saccharomyces cerevisiae_SOA1; experiment: as above
Experimental: as §1

[44] = tested on: Aspergillus nidulans_XP_660563; experiment: as above
Experimental: as §1

[45] = tested on: Aspergillus nidulans_XP_661733; experiment: as above
Experimental: as §1

Q: How did the “lag phase before growth” value [1] turn out when `O=C(O)CS(=O)(=O)O` [Sulfoacetic acid] was run?
A: The value was 38.2 h.

Q: What about the “lag phase before growth” value [2] of the same compound?
A: The value was 8.28 h.

Q: And the “lag phase before growth” value [3]?
A: The value was 9.42 h.

Q: And the “lag phase before growth” value [4]?
A: Its value is 26.9 h.

Q: What about the maximal growth rate [5] of the same compound?
A: Its maximal growth rate is 0.00401.

Q: What about the maximal growth rate [6] of the same compound?
A: Its maximal growth rate is 0.0131.

Q: What about the maximal growth rate [7] of the same compound?
A: The maximal growth rate was 0.00305.

Q: And the maximal growth rate [8]?
A: Its maximal growth rate is 0.0314.

Q: And the maximal growth rate [9]?
A: Its maximal growth rate is 0.00286.

Q: And the maximal growth rate [10]?
A: Its maximal growth rate is 0.0033.

Q: And the maximal growth rate [11]?
A: The maximal growth rate was 0.00308.

Q: And the maximal growth rate [12]?
A: Its maximal growth rate is 0.00462.

Q: And the maximal growth rate [13]?
A: The maximal growth rate was 0.00346.

Q: And the maximal growth rate [14]?
A: The maximal growth rate was 0.00282.

Q: And the maximal growth rate [15]?
A: The maximal growth rate was 0.00474.

Q: What about the maximal growth rate [16] of the same compound?
A: Its maximal growth rate is 0.00399.

Q: And the maximal growth rate [17]?
A: Its maximal growth rate is 0.00684.

Q: What about the maximal growth rate [18] of the same compound?
A: Its maximal growth rate is 0.0296.

Q: And the maximal growth rate (soa1 del [19])?
A: Its maximal growth rate is 0.00385.

Q: What about the maximal growth rate [20] of the same compound?
A: Its maximal growth rate is 0.00439.

Q: What about the maximal growth rate [21] of the same compound?
A: The maximal growth rate was 0.0177.

Q: What about the maximal growth rate [22] of the same compound?
A: Its maximal growth rate is 0.00636.

Q: What about the maximal growth rate [23] of the same compound?
A: Its maximal growth rate is 0.0325.

Q: What about the maximal growth rate [24] of the same compound?
A: Its maximal growth rate is 0.00621.

Q: And the maximal growth rate [25]?
A: The maximal growth rate was 0.0174.

Q: What about the maximal culture density [26] of the same compound?
A: Its maximal culture density is 0.222.

Q: And the maximal culture density [27]?
A: Its maximal culture density is 0.731.

Q: What about the maximal culture density [28] of the same compound?
A: Its maximal culture density is 0.211.

Q: And the maximal culture density [29]?
A: The maximal culture density was 1.01.

Q: And the maximal culture density [30]?
A: The maximal culture density was 0.183.

Q: What about the maximal culture density [31] of the same compound?
A: Its maximal culture density is 0.274.

Q: And the maximal culture density [32]?
A: The maximal culture density was 0.282.

Q: And the maximal culture density [33]?
A: Its maximal culture density is 0.223.

Q: And the maximal culture density [34]?
A: The maximal culture density was 0.225.

Q: What about the maximal culture density [35] of the same compound?
A: The maximal culture density was 0.391.

Q: And the maximal culture density [36]?
A: Its maximal culture density is 0.275.

Q: And the maximal culture density [37]?
A: Its maximal culture density is 0.223.

Q: What about the maximal culture density [38] of the same compound?
A: Its maximal culture density is 1.33.

Q: What about the maximal culture density (soa1 del [39]) of the same compound?
A: Its maximal culture density is 0.216.

Q: What about the maximal culture density [40] of the same compound?
A: Its maximal culture density is 0.251.

Q: What about the maximal culture density [41] of the same compound?
A: The maximal culture density was 0.712.

Q: What about the maximal culture density [42] of the same compound?
A: Its maximal culture density is 0.3.

Q: And the maximal culture density [43]?
A: The maximal culture density was 1.28.

Q: And the maximal culture density [44]?
A: Its maximal culture density is 0.308.

Q: What about the maximal culture density [45] of the same compound?
A: The maximal culture density was 0.777.
